From patent US9708272B2, “Inhibitors of α-amino-β-carboxymuconic acid semialdehyde decarboxylase” (TES Pharma S.r.l., priority 2014, dated 2017)
Entries after “also recorded” stand apart in the source; their conditions may differ.

Tests used:
ACMSD-1 = ACMSD-1 (Homo sapiens (Human), UniProt Q8TDX5); test: ACMSD-1 modulation in HEK293T cells transiently expressing ACMSD; format: cell-based; settings: about 50 nM to about 5 uM, 48 hrs to 72 hrs
Experimental: HEK293T cells are seeded and transfected to transiently express ACMSD. The cells are then stimulated with different concentrations of Compound 1, and then lysed to measure the ACMSD activity in a spectrophotometrical in vitro assay. The amount of the whole protein content in cell lysates is detected by Bradford analysis and used to get the specificity activity of the enzyme normalized in all samples.
HEK293T cells (ATCC) were seeded in six-well plates and transfected using Fugene HD to express transiently ACMSD. 24 hrs post transfection, the cells were stimulated for 48 hrs to 72 hrs with different concentrations of Compound 1 and then lysed to measure the ACMSD activity, by measuring the conversion of 30H-Anthranilic Acid into product (i.e. α-amino-beta-carboxymuconate-ε-semialdehyde, ACMS) in a spectrophotometrical in vitro assay. The amount of the whole protein content in cell lysates was detected by Bradford analysis. This value was used to get the specificity activity of the enzyme normalized in all samples (mU/ml or ΔE/Δt/mg of total protein).
Having determined the optimum stimulation time and transfection protocol cells were stimulated with different concentrations of Compound 1 (about 50 nM to about 5 uM).

SOD2 [1] = test: Modulation of SOD2 activity in AML-12 cells; format: cell-based, mouse; settings: 24 hours
Experimental: Primary hepatocytes or AML-12 cells are lysed and total protein concentration is determined using the Bradford assay. SOD2 activity is determined at indicated times after treatment with a compound of Formula (I), Formula (Ia), Formula (Ib), Formula (II), or Formula (III), or a pharmaceutically acceptable salt thereof, using a SOD Assay Kit. Absorbance is determined and results are expressed in U/ml/mg of protein according to the standard curve and measured protein concentration. […]
Primary hepatocytes or AML-12 cells were then lysed in a 20 mM HEPES buffer (Gibco), pH 7.2, containing 1 mM EGTA (Sigma), 210 mM mannitol (Sigma), and 70 mM sucrose (AMRESCO). Total protein concentration was determined using the Bradford assay (BioRad). SOD-2 activity was determined at indicated times after ACMSD inhibitor treatment by the SOD Assay Kit (Cayman Chemical) according to the manufacturer's instructions. […] Absorbance was determined with a Victor X4 multi-label plate reader (Perkin-Elmer) at 450 nm. Results are expressed in U/ml/mg of protein according to the standard curve and measured protein concentration.

SOD2 [2] = test: Modulation of SOD2 activity in murine primary hepatocytes; format: cell-based, mouse; settings: for SOD2 activity: primary murine hepatocytes, 24 hours
Experimental: Primary hepatocytes or AML-12 cells are lysed and total protein concentration is determined using the Bradford assay. SOD2 activity is determined at indicated times after treatment with a compound of Formula (I), Formula (Ia), Formula (Ib), Formula (II), or Formula (III), or a pharmaceutically acceptable salt thereof, using a SOD Assay Kit. Absorbance is determined and results are expressed in U/ml/mg of protein according to the standard curve and measured protein concentration.
Primary hepatocytes were prepared from 8-12-week-old C57BL/6J mice by collagenase perfusion method. Mouse livers were perfused with Hank's balanced salt solution (HBSS, KCl, 5.4 mM; KH2PO4, 0.45 mM; NaCl, 138 mM; NaHCO3, 4.2 mM; Na2HPO4, 0.34 mM; glucose, 5.5 mM; […]; EGTA, 50 mM; CaCl2, 50 mM; pH 7.4). Livers were then washed at a rate of 5 ml/min through the portal vein. After washing, livers were perfused with collagenase (0.025%) solution. Cell viability was assessed by the trypan blue method. Isolated primary hepatocytes were plated with DMEM medium (Gibco) including 10% FCS, 10 units per ml penicillin and HEPES for buffering. The cells were maintained in culture at 37° C. in a humidified atmosphere of 5% CO2/95% air. After 6-8 hrs of attachment, this medium was replaced with media containing different concentrations of an ACMSD inhibitor (i.e., Compound 1 or Compound 17) or with the corresponding concentration of DMSO (as a control). Primary hepatocytes were harvested about 24 hrs later if not indicated differently.
Primary hepatocytes or AML-12 cells were then lysed in a 20 mM HEPES buffer (Gibco), pH 7.2, containing 1 mM EGTA (Sigma), 210 mM mannitol (Sigma), and 70 mM sucrose (AMRESCO). Total protein concentration was determined using the Bradford assay (BioRad). SOD-2 activity was determined at indicated times after ACMSD inhibitor treatment by the SOD Assay Kit (Cayman Chemical) according to the manufacturer's instructions. In order to specifically detect the SOD2 activity 2 mM potassium cyanide was added to the assay, which inhibited both Cu/Zn-SOD and extracellular SOD, resulting in the detection of only Mn-SOD (SOD-2) activity. Absorbance was determined with a Victor X4 multi-label plate reader (Perkin-Elmer) at 450 nm. Results are expressed in U/ml/mg of protein according to the standard curve and measured protein concentration.

[3] = test system: SIRT1-regulated genes (Sod2); test: RT-qPCR analysis of SIRT1-regulated genes in AML-12 cells; format: cell-based, mouse; settings: 24 hrs
Experimental: (§1) Cells (AML-12, Hepa-1.6, HEK-293, primary human and murine hepatocytes) are treated with different concentrations of a compound of Formula (I), Formula (Ia), Formula (Ib), Formula (II), or Formula (III), or a pharmaceutically acceptable salt thereof and the gene expression of ACMSD, Pgc1a, Sod1, and Sod2 (MnSOD) is determined using RT-qPCR. Total RNA is extracted from cells and the extracted RNA is treated with DNase and used for reverse transcription (RT).
(§2) Gene expression of ACMSD and genes known to be regulated by SIRT1, (an enzyme that is strictly NAD^+ dependent) such as Pgc1a, Sod1, Sod2 (MnSOD), were analysed in AML-12 cells, Hepa-1.6 cells and primary murine hepatocytes treated with Compound 1 or 17.
(§3) Cells (AML-12, Hepa-1.6, HEK-293, primary human and murine hepatocytes) were treated with different concentrations of Compound 1 or Compound 17. Total RNA was extracted from cells using TRIzol (Invitrogen) according to the manufacturer's instructions. The RNA was treated with DNase, and 2 μg of RNA was used for reverse transcription (RT). 50× diluted cDNA was used for RT-quantitative PCR (RT-qPCR) reactions. The RT-qPCR reactions were performed using the Light-Cycler system (Roche Applied Science) and a qPCR Supermix (QIAGEN) with the indicated primers. The average of at least three technical repeats was used for each biological data point.

[4] = test system: SIRT1-regulated genes (Sod2); test: RT-qPCR analysis of SIRT1-regulated genes in Hepa-1.6 cells; format: cell-based; settings: Hepa-1.6 hepatic cell line; 24 hrs
Experimental: as §1, §2, §3

AML-12 cells = test: Cytotoxicity (LDH release, ATP level) in AML-12 cells; format: cell-based, mouse; settings: 10 nM to 300 μM; 4 hrs; DMSO 1%
Experimental: (§4) HePG2 and AML-12 cells are seeded and a dose-response of the compound is performed at various concentrations. Cells are stimulated and the supernatant is used to perform LDH release as a measure of necrosis while the cells are lysed to detect ATP levels for determining cell viability.
(§5) Cytotoxicity: 20000 HePG2 and AML-12 cells were seeded in 96 well plate (Viewplate PerkinElmer). Dose-response of the compound in Table 2 was performed using HP D300 digital dispenser, ranging from 10 nM to 300 μM with constant DMSO 1% in medium. Cells were stimulated for 4 hrs at 37° C.; the supernatant was used to perform LDH release (Cytotox-one, Promega) as a measure of necrosis while the cells were lysed to detect ATP level for determining cell viability (Celltiter-glo, Promega) according to manufacturer's instructions.

HePG2 cells = test: Cytotoxicity (LDH release, ATP level) in HePG2 cells; format: cell-based; settings: 10 nM to 300 μM; 4 hrs; DMSO 1%
Experimental: as §4, §5

hERG potassium channel = hERG potassium channel (Homo sapiens (Human), UniProt Q12809); test: Predictor hERG assay, fluorescence polarization tracer displacement; settings: hERG channel affinity binding; DMSO 1%
Text: The Predictor hERG assay kit is stably transfected with hERG potassium channel and a high-affinity red fluorescent hERG channel ligand and is used for the determination of hERG channel affinity binding of compounds of Formula (I), Formula (Ia), Formula (Ib), Formula (II), or Formula (III), or a pharmaceutically acceptable salt thereof. Compounds that bind to the hERG channel protein (competitors) are identified by their ability to displace the tracer which results in a lower fluorescence polarization.
The Predictor hERG assay kit (Invitrogen), containing membrane preparations from Chinese hamster ovary cells stably transfected with hERG potassium channel and a high-affinity red fluorescent hERG channel ligand (tracer), was used for the determination of hERG channel affinity binding of the test compounds in Table 2. Compounds that bind to the hERG channel protein (competitors) were identified by their ability to displace the tracer, resulting in a lower fluorescence polarization. The final concentration of DMSO in each well was maintained at 1%. The assays were performed according to the manufacturer's protocol (Invitrogen).

FoxO1 = FoxO1 phosphorylation levels in AML-12 cells (western blot); format: cell-based, mouse; settings: 24 hours, FIG. 6
Experimental: AML-12 cells are treated with different concentrations of a compound of Formula (I), Formula (Ia), Formula (Ib), Formula (II), or Formula (III), or a pharmaceutically acceptable salt thereof. Cells are then lysed, and analyzed by SDS-PAGE/western blot. Blocking and antibody incubations are then done and each protein present is detected with its specific antibody.
AML-12 cells were treated with different concentrations of Compound 1 or Compound 17 for 24 hours. Cells were then lysed in lysis buffer (50 mM Tris, 150 mM KCl, EDTA 1 mM, NP40 1%) containing protease and phosphatase inhibitors, and analyzed by SDS-PAGE/western blot. Blocking and antibody incubations were done in 5% milk. Each protein present was detected with its specific antibody. Tubulin antibody was obtained from Sigma Inc, FoxO1 and phopho-FoxO1 (Ser256) antibodies were obtained from Cell Signaling. Antibody detection reactions were developed by enhanced chemiluminescence (Advansta, Calif., USA) using x-ray films.

[5] = test system: murine primary hepatocytes; test: NAD+ content in murine primary hepatocytes (HPLC, mass-spectrometry); format: cell-based, mouse; settings: 24 hours
[6] = test system: SIRT1-regulated genes (Pgc1a, Sod1, Sod2); test: RT-qPCR analysis of SIRT1-regulated genes in primary murine hepatocytes; format: cell-based; settings: primary mouse hepatocytes; 24 hrs; 5 nM-500 nM range
Experimental: as §1, §2, §3

[7] = test system: human primary hepatocytes; test: NAD+ content in human primary hepatocytes (LCMS/MS); format: cell-based; settings: 0.5 μM and 5 μM, FIG. 1
Experimental: Primary hepatocytes are treated with different concentrations of a compound of Formula (I), Formula (Ia), Formula (Ib), Formula (II), or Formula (III), or a pharmaceutically acceptable salt thereof, or MEHP (control) after seeding. The compound is replaced every 24 hours, and then cells are directly harvested and lysed to detect NAD^+ content through LC MS/MS (liquid chromatography mass spectrometry/mass spectroscopy).
The NAD^+ concentration or content was determined in human primary hepatocytes treated with Compound 4. Vehicle (NT) was used as a control.
At least three experiments were run treating primary hepatocytes with different concentrations of Compound 4 (0.5 μM and 5 μM) after 48 hrs from seeding. Compound 4 was replaced every 24 hrs, and then cells were directly harvested and lysed with ACN/H2O (ratio 5:1). LCMS/MS was used to detect and measure NAD^+ concentration/content. […] (FIG. 1)
The NAD^+ concentration or content was determined in human primary hepatocytes treated with Compound 1 and MEHP, a known ACMSD inhibitor. MEHP was used as a control.
At least three experiments were run treating primary hepatocytes with different concentrations of Compound 1 (0.5 μM, 5 μM, and 50 μM) after 48 hrs from seeding. Compound 1 was replaced every 24 hrs, and then cells were directly harvested and lysed with ACN/H2O (ratio 5:1). […]

hACMSD (ACMSD1) = hACMSD (ACMSD1) (Homo sapiens (Human), UniProt Q8TDX5); test: Determination of ACMSD1 inhibition, spectrophotometrical in vitro assay; format: biochemical; settings: 500 μM
Experimental: The activity of compounds as inhibitors of ACMSD1 is determined in a spectrophotometrical in vitro assay. The pre-assay mixture is incubated and a compound of Formula (I), Formula (Ia), Formula (Ib), Formula (II), or Formula (III), or a pharmaceutically acceptable salt thereof, and ACMSD1 solution is then added. The effect of ACMS concentration on the enzyme activity is investigated by varying 3-hydroxyanthranilic acid (3OH-HA) concentration in the pre-assay mixture. Kinetic parameters are calculated from the initial velocity data using a Lineweaver-Burk plot.
The activity of compounds 1-19 and 21-23 as inhibitors of ACMSD1 was determined by measuring the conversion of 30H-Anthranilic Acid into product (i.e., ACMS) in a spectrophotometrical in vitro assay.
The pre-assay mixture consisting of 3-hydroxyanthranilic acid (3OH-HA), 3-hydroxyanthranilic acid, 3,4-diOxygenase (HAO), and a dialyzed crude extract of E. coli BL21 (DE3) cells expressing the recombinant enzyme, was incubated at 25° C. with monitoring of the increase in absorbance at 360 nm due to the formation of ACMS from 3OH-HA. After the reaction was completed within ˜2 mins, an aliquot of ACMSD1 solution (prepared and purified from Pichia Pastoris overexpressing the recombinant enzyme) was added, and the decrease in absorbance at 360 nm was followed at 15 second intervals. […]

hERG potassium channel, sequence (Q12809 whole entry): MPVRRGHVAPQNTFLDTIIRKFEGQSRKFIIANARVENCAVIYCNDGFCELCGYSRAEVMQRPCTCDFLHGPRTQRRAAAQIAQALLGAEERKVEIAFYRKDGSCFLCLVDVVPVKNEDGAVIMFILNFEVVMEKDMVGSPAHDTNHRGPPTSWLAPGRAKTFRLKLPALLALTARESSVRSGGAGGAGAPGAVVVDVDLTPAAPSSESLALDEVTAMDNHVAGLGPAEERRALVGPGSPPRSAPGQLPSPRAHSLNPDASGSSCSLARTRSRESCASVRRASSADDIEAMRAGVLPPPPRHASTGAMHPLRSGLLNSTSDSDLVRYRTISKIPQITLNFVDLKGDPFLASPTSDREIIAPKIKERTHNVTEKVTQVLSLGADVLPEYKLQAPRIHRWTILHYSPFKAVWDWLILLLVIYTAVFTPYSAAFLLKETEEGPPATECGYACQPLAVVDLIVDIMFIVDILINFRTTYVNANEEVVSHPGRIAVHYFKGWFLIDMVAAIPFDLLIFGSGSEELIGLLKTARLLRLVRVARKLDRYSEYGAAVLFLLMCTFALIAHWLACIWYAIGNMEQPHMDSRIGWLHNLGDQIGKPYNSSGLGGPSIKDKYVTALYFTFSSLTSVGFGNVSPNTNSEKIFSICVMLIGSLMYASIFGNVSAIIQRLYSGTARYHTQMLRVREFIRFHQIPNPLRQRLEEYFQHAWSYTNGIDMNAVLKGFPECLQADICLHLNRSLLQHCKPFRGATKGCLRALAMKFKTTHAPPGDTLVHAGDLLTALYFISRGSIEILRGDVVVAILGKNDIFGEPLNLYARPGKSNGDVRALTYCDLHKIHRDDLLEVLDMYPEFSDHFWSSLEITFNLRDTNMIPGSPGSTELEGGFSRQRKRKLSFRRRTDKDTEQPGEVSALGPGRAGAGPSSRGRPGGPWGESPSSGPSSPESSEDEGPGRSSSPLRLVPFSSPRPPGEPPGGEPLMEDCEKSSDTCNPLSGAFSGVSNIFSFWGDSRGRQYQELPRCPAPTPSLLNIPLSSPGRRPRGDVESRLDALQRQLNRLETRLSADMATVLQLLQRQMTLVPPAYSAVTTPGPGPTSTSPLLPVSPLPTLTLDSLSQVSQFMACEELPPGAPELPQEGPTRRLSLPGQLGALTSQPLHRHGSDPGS
ACMSD-1, sequence (Q8TDX5 whole entry): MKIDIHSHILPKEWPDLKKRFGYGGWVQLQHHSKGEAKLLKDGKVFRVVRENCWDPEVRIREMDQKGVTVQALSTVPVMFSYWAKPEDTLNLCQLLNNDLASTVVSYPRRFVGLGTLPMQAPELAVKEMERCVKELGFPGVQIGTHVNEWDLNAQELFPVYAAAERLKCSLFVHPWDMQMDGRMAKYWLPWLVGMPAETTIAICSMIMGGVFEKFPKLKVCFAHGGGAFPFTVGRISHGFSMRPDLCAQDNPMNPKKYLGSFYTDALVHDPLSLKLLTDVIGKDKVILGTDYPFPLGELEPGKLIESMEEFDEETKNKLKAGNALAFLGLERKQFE
hACMSD (ACMSD1), sequence (Q8TDX5 whole entry): as above

| SMILES | ACMSD-1 activity in over-expression cell-based assay (ACMSD-1) | SOD2 activity (SOD2 [1]) | SOD2 activity (SOD2 [2]) | Sod2 mRNA levels [3] | Sod2 mRNA levels [4] | Cytotoxicity AML-12 (AML-12 cells) | Cytotoxicity Hep-G2 (HePG2 cells) | hERG (hERG potassium channel) | FoxO1 phosphorylation at Ser256 (FoxO1) | dose at which effects on SOD2 activity were observed (SOD2 [2]; primary hepatocytes) | dose at which the effect on SOD2 activity reached a maximum (SOD2 [2]; primary hepatocytes) | intra-cellular NAD+ levels ([5]; 5 nM, 10 nM and 50 nM, FIG. 2) | concentration with significant effect on NAD+ levels [5] [nM] | Pgc1a mRNA expression levels [6] | Sod2 (MnSOD) mRNA expression levels [6] | ACMSD-1 inhibition (NAD+ concentration/content) [7] | inhibition of purified ACMSD-1 enzyme (hACMSD (ACMSD1)) [%] |
| --- | --- | --- | --- | --- | --- | --- | --- | --- | --- | --- | --- | --- | --- | --- | --- | --- | --- |
| N#Cc1c(-c2ccccc2)nc(SCc2cccc(C(=O)O)c2)[nH]c1=O [Compound 1] | inhibited ACMSD-1 activity, in a dose dependent manner | induced in a dose-dependent manner | induced in a dose-dependent manner | increased in a dose-dependent manner | increased in a dose-dependent manner | Not Toxic | Not Toxic | No Activity | decrease in FoxO1 phosphorylation at Ser256 with increasing dose | – | – | – | – | – | – | – | – |
| N#Cc1c(-c2cccs2)nc(SCc2cccc(-c3nn[nH]n3)c2)[nH]c1=O [Compound 17] | – | induced in a dose-dependent manner | induced in a dose-dependent manner | – | – | Not Toxic | Not Toxic | No Activity | decrease in FoxO1 phosphorylation at Ser256 with increasing dose | about 5 nM | about 50 nM | increase in NAD^+ levels; also recorded: significant and dose-dependent increase | ≤ 5 | dose-dependent increase | dose-dependent increase | – | – |
| N#Cc1c(-c2cccs2)nc(SCc2cccc(C(=O)O)c2)[nH]c1=O [Compound 4] | – | – | – | – | – | Not Toxic | Not Toxic | No Activity | – | – | – | – | – | – | – | inhibits ACMSD-1 enzyme at concentrations as low as 0.5 μM and 5 μM | – |
| CCCCC(CC)COC(=O)c1ccccc1C(=O)O (centres unmarked) [MEHP, mono-(2-ethylhexyl)phthalate] | – | – | – | – | – | – | – | – | – | – | – | – | – | – | – | – | 70 |
